# Where a name gives a salt, the structure may show the parent alone.
# Legend:
# [1] = tested on: presynaptic dopamine receptors; assay: Inhibition of the exploratory activity of mice (infra-red light barrier cages); type: in vivo
# Method: The activity was measured in observation cages fitted with an infra-red light barrier. […] Groups of 5 animals are given the test substance, unless otherwise specified, in a dosage of 10 mg/kg by subcutaneous injection. […] In parallel or alternately with groups treated with test substance, control groups treated with common salt are investigated (0.9% solution; 0.1 ml/10 g of body weight by subcutaneous route).
# dopamine turnover = assay: Inhibition of dopamine turnover (AMPT-induced dopamine reduction in brain); type: in vivo, mice
# Method: The inhibition of dopamine turnover was measured in mice. In animals treated with α-methylparatyrosine (AMPT) (250 mg/kg by intraperitoneal route) 15 minutes into the experiment, the dopamine concentration throughout the brain decreases as the test progresses. By administering substances which act on autoreceptors, the dopamine reduction (compared with control animals treated with common salt solution) can be prevented. Test substances are administered at time O of the experiment in a dosage of 5 mg/kg s.c., unless otherwise stated. Four hours and 15 minutes into the experiment the animals are killed and the brains are subjected to dopamine determination using high pressure liquid chromatography with electrochemical detection. This determines the percentage inhibition, caused by the test substance, of the dopamine reduction induced by AMPT.
# dopamine synthesis = assay: Inhibition of dopamine synthesis (γ-butyrolactone-stimulated DOPA accumulation in corpus striatum); type: in vivo
# Method: For this purpose, 5 animals are given the test substance in a dosage of 10 mg/kg s.c., unless otherwise stated. […] In order to inhibit the decarboxylation of DOPA, 200 mg/kg of 3-hydroxybenzyl-hydrazinhydrochloride are administered by intraperitoneal route after a further 5 minutes. Forty minutes after administration of the substance the animals are killed and the corpus striatum is prepared. The DOPA content is measured by HPLC with electrochemical detection (standard: dihydroxybenzylamine).
# The percentage inhibition, produced by the test substance, of the DOPA accumulation stimulated by γ- butyrolactone compared with the controlled animals treated with 0.9% common salt solution is determined.
# [2] = tested on: Rhesus monkeys (MPTP model for Parkinson's disease)
# Excerpt: The discovery of the neurotoxin 1-methyl-4-phenyl-1,2,3,6-tetrahydropyridine (MPTP) (Langston et al., Science 219, 979 (1983)) provided an animal model for Parkinson's disease.
# The irreversible neurological syndrome triggered by MPTP in man and in monkeys largely resembles the idiopathic Parkinson's disease in its clinical, pathological, biochemical and pharmacological characteristics (Markey et al., Nature 311, 464 (1984)). The reason for this convincing similarity is the fact that MPTP selectively destroys the small group of dopaminergic nerve cells in the substantia nigra of the brain which are also destroyed by degenerative processes in naturally occurring Parkinson's disease.
# [3] = 5 mg/kg s.c., AMPT 250 mg/kg i.p., brain dopamine at 4 hours 15 minutes
# [4] = 10 mg/kg s.c., measurement of exploration 75 minutes after administration
compound,measurement,setting,value
"CN(C)C1CCc2nc(N)sc2C1.Cl.Cl (stereo not shown) [Substance A, 2-amino-6-dimethylamino-4,5,6,7-tetrahydrobenzthiazol-dihydrochloride]",Dosage giving 50 percent inhibition of activity (read off from the dosage/activity curve),"[1]; 50 percent inhibition, curve in the range 1-10 mg/kg s.c.",2.7 mg/kg s.c.
same,Inhibition of activity in percent compared with controls treated with common salt,"[1]; at 2.7 mg/kg s.c., read off from the dosage/activity curve (1-10 mg/kg s.c.)",50%
same,ED50,"dopamine turnover; Mus musculus, sc, 50 % inhibition, curve in the range 0.5-3 mg/kg s.c., read-out: Dosage giving 50 % inhibition of AMPT effect (read off from the dosage/activity curve)",0.95 mg/kg
same,% inhibition of AMPT effect,"dopamine turnover; at 0.95 mg/kg s.c., read off from the dosage/activity curve (0.5-3 mg/kg s.c.)",50%
same,Inhibition of DOPA accumulation in percent compared with controls treated with common salt,"dopamine synthesis; at 0.55 mg/kg s.c., read off from the dosage/activity curve (0.1-1.0 mg/kg s.c.)",50%
same,ED50,"dopamine synthesis; sc, 50 percent inhibition, curve in the range 0.1-1.0 mg/kg s.c., read-out: Dosage giving 50 percent inhibition of DOPA accumulation (read off from the dosage/activity curve)",0.55 mg/kg
"Cl.Cl.Nc1nc2c(s1)CC(N1CCCC1)CC2 (stereo not shown) [Substance B, 2-amino-6-pyrrolidino-4,5,6,7-tetrahydrobenzthiazol-dihydrochloride]",Inhibition of activity in percent compared with controls treated with common salt,"[1]; 10 mg/kg s.c., measured one hour after administration",94%
same,% inhibition of AMPT effect,dopamine turnover; [3],67%
"CCCNC1CCc2nc(N)sc2C1.Cl.Cl (stereo not shown) [Substance C, 2-amino-6-n-propylamino-4,5,6,7-tetrahydrobenzthiazol-dihydrochloride]",Inhibition of activity in percent compared with controls treated with common salt,[1]; [4],20%
same,Inhibition of DOPA accumulation in percent compared with controls treated with common salt,"dopamine synthesis; 10 mg/kg s.c., γ-butyrolactone 750 mg/kg i.p., 40 minutes after administration",60%
same,Residual symptoms,[2]; 10-100 μg/kg intramuscular,an occasional transient and slight resting tremor and a reduction in rough strength
same,Sedation,[2]; 10-100 μg/kg intramuscular,no sedation
same,Circulation in the skin,"[2]; 10-100 μg/kg intramuscular, compared with before administration",appeared to be greater than before
same,Effect of a fresh administration,[2]; after reversion to Parkinson symptoms,again leads to an improvement or substantial removal of the clinically pathological manifestations
"C=CCNc1nc2c(s1)CC(N(C)C)CC2.Cl.Cl (stereo not shown) [Substance D, 2-allylamino-6-dimethylamino-4,5,6,7-tetrahydro-benzthiazol-dihydrochloride]",Inhibition of activity in percent compared with controls treated with common salt,[1]; [4],76%
same,% inhibition of AMPT effect,dopamine turnover; [3],52%
"C=CCN(Cc1ccc(Cl)cc1)C1CCc2nc(N)sc2C1 (stereo not shown) [Substance E, 6-[N-ally-N-(4-chloro-benzyl)-amino]-2-amino-4,5,6,7-tetrahydro-benzthiazol-dihydrochloride]",Inhibition of activity in percent compared with controls treated with common salt,[1]; [4],56%
same,% inhibition of AMPT effect,dopamine turnover; [3],32%
"C=CCN(CC=C)C1CCc2nc(N)sc2C1.Cl.Cl (stereo not shown) [Substance F, 2-amino-6-diallylamino-4,5,6,7-tetrahydrobenzthiazol-dihydrochloride]",Inhibition of activity in percent compared with controls treated with common salt,[1]; [4],60%

# — patent US4886812A, “Tetrahydro-benzthiazoles, the preparation thereof and their use as intermediate products or as pharmaceuticals” (Dr. Karl Thomae GmbH, priority 1984, dated 1989)
